The values that follow come from US20160040126A1, “REGULATION OF DIFFERENTIATION INTO DOPAMINERGIC NEURONS BY METALLOPROTEASE” (Korea University Research and Business Foundation, priority 2012, published 2016).

In test [1] the test system is midbrain neurons derived from normal mice and D2R−/− mice. The test can be described thus: Differentiation of midbrain neurons into dopaminergic neural cells (TH immunostaining: number of TH-positive cells, neurite length, neurite number). Type of test: cell-based. Conditions: for effect of the agent on the development of dopaminergic neural cells by EGF+quinpirole: co-treatment with EGF+quinpirole, normal mice and D2R−/− mice; for effect of the agent on the differentiation/development of dopaminergic neural cells by EGF: co-treatment with EGF, or siRNA knockdown before EGF. The protocol: Midbrain neurons derived from normal mice and D2R−/− mice were treated with each of EGF, EGF+haloperidol, EGF+AG1478 and EGF+PD98059, and then stained with TH by an immunostaining technique. Then, the number of TH-positive cells, the length of neurites and the number of neurites in the midbrain neurons were compared between EGF, EGF+haloperidol, EGF+AG1478 and EGF+PD98059 to determine the abilities to induce differentiation into dopaminergic neural cells.
Then, the number of TH-positive cells, the length of neurites and the number of neurites in the midbrain neurons were compared to determine the abilities to induce differentiation into dopaminergic neural cells.

For test [2], the system named is ERK. The test can be described thus: Phosphorylation of ERK in midbrain neurons. Type of test: cell-based, mice. As to conditions: for effect of the agent on the phosphorylation of ERK by quinpirole: co-treatment with quinpirole, or siRNA knockdown before quinpirole; for effect of the agent on the phosphorylation of ERK by EGF: co-treatment with EGF.

Consider `COc1cc2ncnc(Nc3cccc(Cl)c3)c2cc1OC` [AG1478], for which the “effect of the agent on the development of dopaminergic neural cells by EGF+quinpirole” value in test [1] was “inhibited to the basal level”. Besides, the “effect of the agent on the differentiation/development of dopaminergic neural cells by EGF” value in test [1] (midbrain neurons) is “completely blocked”. In addition, in test [2], the “effect of the agent on the phosphorylation of ERK by quinpirole” value is “inhibited”.

As to `CNC(=O)[C@H](Cc1c[nH]c2ccccc12)NC(=O)[C@H](CC(=O)NO)CC(C)C` [GM6001, (2S)—N4-hydroxy-N1-[(1S)-1-(1H-indol-3-ylmethyl)-2-(methylamino)-2-oxoethyl]-2-isobutylsuccinamide], the “effect of the agent on the differentiation/development of dopaminergic neural cells by EGF” value in test [1] (midbrain neurons) is “not inhibited”. Moreover, in test [1] (co-treatment with quinpirole, or siRNA knockdown before quinpirole, midbrain neurons), the “effect of the agent on the development of dopaminergic neural cells by quinpirole” value is reported as “inhibited”. In test [2], the “effect of the agent on the phosphorylation of ERK by EGF” value is given as “not influenced” and the “effect of the agent on the phosphorylation of ERK by quinpirole” value is given as “inhibited to the basal level”.

Regarding `COc1cccc(-c2cc(=O)c3ccccc3o2)c1N` [PD98059], the “effect of the agent on the differentiation/development of dopaminergic neural cells by EGF” value in test [1] (midbrain neurons) is recorded as “completely blocked”.

With `O=C(CCCN1CCC(O)(c2ccc(Cl)cc2)CC1)c1ccc(F)cc1` [haloperidol], the “effect of the agent on the development of dopaminergic neural cells by EGF+quinpirole” value in test [1] is on record as “not inhibited”. For the same compound, the “effect of the agent on the differentiation/development of dopaminergic neural cells by EGF” value in test [1] (midbrain neurons) is on record as “not blocked”. Also, the “effect of the agent on the phosphorylation of ERK by EGF” value in test [2] is “not inhibited”.

For “EGF: epidermal growth factor (NSDSECPLSHDGYCLHDGVCMYIEALDKYACNCVVGYIGERCQYRDLKWWELR; Epidermal growth factor; UniProt P01133 971-1023, looked up)”, the “differentiation of dopaminergic neural cells from midbrain neurons” value in test [1] (treated with the agent alone, normal mouse and D2R−/− mouse midbrain neurons, TH immunostaining) is “promoted”. Also, the “phosphorylation of ERK by the agent” value in test [2] (compared to that in the control) is 417%.
